Here are results for 20 compounds from PubChem BioAssay AID248 (DTP/NCI, 2004).

Values joined by “and” are separate entries in the source; they are usually repeats but may differ in a detail not shown here. Identical values can stand only once. Toxic doses and inconclusive results are not listed.

The subject of this test is L1210 leukemia ip in BDF1 mice, survival T/C. Nature of the test: NCI In Vivo Anticancer Drug Screen. Data for tumor model L1210 Leukemia (intraperitoneal) in B6D2F1 (BDF1) mice. As to conditions: endpoint: mean survival time, higher = longer survival. In outline:
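Mice bearing the transplanted tumor received compound or vehicle. Survival of the treated group was divided by that of the vehicle-treated control group to give the ratio.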

[1] abbreviates: dose: 100.0 mg/kg/injection, schedule: Q01DX009 (ip), vehicle: saline with Tween-80.
Setting [2] is: dose: 100.0 mg/kg/injection, schedule: Q04DX002 (ip), vehicle: saline with Tween-80.
[3] abbreviates: dose: 200.0 mg/kg/injection, schedule: Q01DX009 (ip), vehicle: saline with Tween-80.
[4] abbreviates: dose: 200.0 mg/kg/injection, schedule: Q04DX002 (ip), vehicle: saline with Tween-80.
Where [5] appears, read: dose: 400.0 mg/kg/injection, schedule: Q01DX009 (ip), vehicle: saline with Tween-80.
Where [6] appears, read: dose: 400.0 mg/kg/injection, schedule: Q04DX002 (ip), vehicle: saline with Tween-80.
The mark [7] stands for this setting: dose: 100.0 mg/kg/injection, schedule: Q04DX003 (ip), vehicle: saline with Tween-80.
The mark [8] stands for this setting: dose: 200.0 mg/kg/injection, schedule: Q04DX003 (ip), vehicle: saline with Tween-80.
Where [9] appears, read: dose: 400.0 mg/kg/injection, schedule: Q04DX003 (ip), vehicle: saline with Tween-80.
The mark [10] stands for this setting: dose: 100.0 mg/kg/injection, schedule: Q01DX009 (ip), vehicle: Klucel (hydroxypropylcellulose) (HPC).
Setting [11] is: dose: 6.25 mg/kg/injection, schedule: Q01DX009 (ip), vehicle: saline.
Where [12] appears, read: dose: 12.5 mg/kg/injection, schedule: Q01DX009 (ip), vehicle: saline.
The mark [13] stands for this setting: dose: 25.0 mg/kg/injection, schedule: Q01DX009 (ip), vehicle: saline.

Turning to `COC(=O)C1(C)CCCC2(C)c3cc(OC)ccc3C3OC3C12` (centres undefined), the T/C was 103 % of control (dose: 100.0 mg/kg/injection, schedule: Q04DX003 (ip), vehicle: other); 100 % of control (dose: 200.0 mg/kg/injection, schedule: Q04DX003 (ip), vehicle: other); 101 % of control (dose: 400.0 mg/kg/injection, schedule: Q04DX003 (ip), vehicle: other).
As to `CCC(C)OP(=S)(S)OC(C)CC` (centres undefined) (tested in a mixture with another compound), the T/C (dose: 100.0 mg/kg/injection, schedule: Q04DX002 (ip), vehicle: saline) is 96 % of control; the T/C (dose: 200.0 mg/kg/injection, schedule: Q04DX002 (ip), vehicle: saline) was 99 % of control; the T/C (dose: 400.0 mg/kg/injection, schedule: Q04DX002 (ip), vehicle: saline) was 96 % of control.
Regarding `O=C(/C=C/c1ccc(Cl)c(Cl)c1)C1CCC2CCCCC2C1` (centres undefined), the T/C was 90 % of control under setting [1]; 105 % of control under setting [2]; 93 % of control under setting [3]; 101 % of control under setting [4]; 90 % of control under setting [5]; 90 % of control under setting [6].
Regarding `NC(CS/C(Cl)=C/Cl)C(=O)O` (centres undefined), the T/C is 101 % of control (dose: 1.5 mg/kg/injection, schedule: Q01DX009 (ip), vehicle: saline); 106 % of control (dose: 3.0 mg/kg/injection, schedule: Q01DX009 (ip), vehicle: saline); 104 % of control (dose: 6.0 mg/kg/injection, schedule: Q01DX009 (ip), vehicle: saline); 98 % of control (dose: 12.0 mg/kg/injection, schedule: Q01DX009 (ip), vehicle: saline); 101 % of control (dose: 17.0 mg/kg/injection, schedule: Q01DX009 (ip), vehicle: saline); 95 % of control (dose: 27.0 mg/kg/injection, schedule: Q01DX009 (ip), vehicle: saline).
On to `CCOC(=O)c1ccc(NC(=O)N(CCCl)N=O)cc1`, for which the T/C by setting is: (dose: 9.0 mg/kg/injection, schedule: Q01DX001 (ip), vehicle: carboxymethylcellulose (CMC)) 215 % of control; (dose: 18.7 mg/kg/injection, schedule: Q01DX001 (ip), vehicle: carboxymethylcellulose (CMC)) 157 % of control.
For the compound `COc1ccc(Cl)cc1NC(=O)Oc1ccc(Br)cc1Br`, the T/C was 94 % of control under setting [1], 104 % of control under setting [3] and 99 % of control under setting [5].
Regarding `COCCNP(=S)(OC)OC`, the T/C was 93 % of control under setting [1]; 101 % of control under setting [7]; 95 % of control under setting [3]; 106 % of control under setting [8]; 101 % of control under setting [5]; 92 % of control under setting [9].
On to `CC1C(=O)OC2CC[N+]3(C)CC=C(COC(=O)C(C)(O)C1(C)O)C23` (centres undefined), for which the T/C reads like this: (dose: 50.0 mg/kg/injection, schedule: Q01DX009 (ip), vehicle: saline) 92 % of control; (dose: 100.0 mg/kg/injection, schedule: Q01DX009 (ip), vehicle: saline) 100 % of control; (dose: 200.0 mg/kg/injection, schedule: Q01DX009 (ip), vehicle: saline) 92 % of control.
`CCO/C=N/c1oc(-c2ccccc2)nc1C#N`: the T/C is, setting by setting: (dose: 100.0 mg/kg/injection, schedule: Q04DX002 (ip), vehicle: Klucel (hydroxypropylcellulose) (HPC)) 91 % of control; (dose: 200.0 mg/kg/injection, schedule: Q04DX002 (ip), vehicle: Klucel (hydroxypropylcellulose) (HPC)) 96 % of control.
`COC(=O)C(C)C(C)(O)C(C)(C)C` (centres undefined): the T/C under setting [7] is 101 % of control.
As for `CN(C)c1nc2ccccc2n1C1OC(CO)C(O)C1O` (centres undefined), the T/C (dose: 100.0 mg/kg/injection, schedule: Q01DX001 (ip), vehicle: acetone) was 106 % of control; the T/C (dose: 200.0 mg/kg/injection, schedule: Q01DX001 (ip), vehicle: acetone) is 103 % of control; the T/C (dose: 400.0 mg/kg/injection, schedule: Q01DX001 (ip), vehicle: acetone) is 97 % of control.
`Cc1ccccc1S(=O)(=O)NSc1ccccc1[N+](=O)[O-]`: the T/C is 101 % of control (dose: 75.0 mg/kg/injection, schedule: Q01DX001 (ip), vehicle: other); 95 % of control (dose: 150.0 mg/kg/injection, schedule: Q01DX001 (ip), vehicle: other); 95 % of control (dose: 300.0 mg/kg/injection, schedule: Q01DX001 (ip), vehicle: other).
`C/C=C/C(=O)Nc1cccc(C)c1C`: the T/C is 93 % of control and 95 % of control under setting [10]; 100 % of control (dose: 200.0 mg/kg/injection, schedule: Q01DX009 (ip), vehicle: Klucel (hydroxypropylcellulose) (HPC)); 92 % of control (dose: 400.0 mg/kg/injection, schedule: Q01DX009 (ip), vehicle: Klucel (hydroxypropylcellulose) (HPC)).
On to `CC1(C)CC[N+]1(C)Cc1ccccc1` (centres undefined), for which the T/C under setting [11] was 95 % of control; the T/C (dose: 6.25 mg/kg/injection, schedule: Q04DX003 (ip), vehicle: saline) was 90 % of control; the T/C (dose: 12.0 mg/kg/injection, schedule: Q01DX001 (ip), vehicle: saline) is 102 % of control; the T/C under setting [12] was 109 % of control; the T/C (dose: 12.5 mg/kg/injection, schedule: Q04DX003 (ip), vehicle: saline) was 101 % of control; the T/C (dose: 25.0 mg/kg/injection, schedule: Q01DX001 (ip), vehicle: saline) is 97 % of control. In addition, the T/C is, setting by setting: under setting [13], 97 % of control; (dose: 25.0 mg/kg/injection, schedule: Q04DX003 (ip), vehicle: saline) 91 % of control.
As for `CN1CCN(C2=Cc3ccccc3C(O)C(Cc3ccccc3)=N2)CC1` (centres undefined), the T/C is 100 % of control under setting [7], 96 % of control under setting [8] and 96 % of control under setting [9].
On to `S=C(Nc1ccccc1)N1CCN2CCCCC2C1` (centres undefined), for which the T/C reads like this: (dose: 75.0 mg/kg/injection, schedule: Q01DX001 (ip), vehicle: acetone) 100 % of control; (dose: 150.0 mg/kg/injection, schedule: Q01DX001 (ip), vehicle: acetone) 107 % of control; (dose: 300.0 mg/kg/injection, schedule: Q01DX001 (ip), vehicle: acetone) 92 % of control.
Regarding `Ic1cccc2cc3cccc[n+]3cc12`, the T/C is 102 % of control (dose: 9.9 mg/kg/injection, schedule: Q01DX Z (ip), vehicle: carboxymethylcellulose (CMC)); 103 % of control (dose: 14.6 mg/kg/injection, schedule: Q01DX Z (ip), vehicle: carboxymethylcellulose (CMC)); 91 % of control (dose: 22.0 mg/kg/injection, schedule: Q01DX Z (ip), vehicle: carboxymethylcellulose (CMC)).
As to `CC(C)(C)NC(=O)Nc1ccc(O)cc1`, the T/C under setting [1] was 112 % of control and 91 % of control; the T/C under setting [2] was 94 % of control and 100 % of control; the T/C under setting [7] is 95 % of control; the T/C under setting [3] is 100 % of control and 102 % of control; the T/C under setting [4] is 94 % of control and 100 % of control; the T/C under setting [8] was 113 % of control. Further, the T/C was 120 % of control under setting [5]; 100 % of control and 101 % of control under setting [6]; 105 % of control under setting [9].
Consider `CC(=O)OCC(=O)[C@@]12OC(C)(C)O[C@@H]1C[C@H]1[C@@H]3CC(C=O)=C4C=C(OCCCl)CC[C@]4(C)[C@@]3(F)[C@@H](O)C[C@@]12C`, for which, under setting [10], the T/C is 95 % of control.
Turning to `c1ccc2c[n+]3ccccc3cc2c1`, the T/C under setting [11] is 103 % of control, the T/C under setting [12] was 100 % of control and the T/C under setting [13] is 111 % of control.
